Article PMC9150179, “Clerodane Diterpenes from Casearia corymbosa as Allosteric GABAA Receptor Modulators” (Journal of Natural Products, 2022)

Columns and labels:
GABAA receptors = tested on: GABAA receptors; design: method as in PMID 17585957; conditions: Xenopus oocyte assay; cited from earlier work
[1] = biological target: GABAA receptor with the α1β2γ2 subunit composition (Homo sapiens, UniProt P14867+P18507+P47870); assay: FLIPR assay on CHO cells stably expressing GABAA receptors; assay type: cell-based; conditions: for % activation at single concentration: 20 μM compound, 200 μM GABA = 100%
Description: Chinese hamster ovary (CHO) cells stably expressing the GABAA receptor with the α1β2γ2 subunit composition were passaged following an established protocol.[15],[16] The Chinese hamster ovary (CHO) cell line stably expressing the α1β2γ2 GABAA receptor subtype was cloned by B’SYS. Cells were cultured in a DMEM F-12 nutrient mixture supplemented with 10% FBS and 1% penicillin/streptomycin, under antibiotic pressure with 200 μg/mL of hygromycin B, 5 μg/mL of puromycin, and 100 μg/mL of zeocin. Cells were incubated in humidified air at 37 °C and 5% CO2, until 80–90% cell confluency. The passage numbers used in this study were from 10 to 30. Briefly, cells of ca. 80–90% confluency were seeded in a 96-well black-walled plate at a density of 60 000 cells/well in 100 μL of culture medium. The plate was incubated in humidified air at 37 °C and 5% CO2 for 24 h to allow cells to adhere. Then, 100 μL of FLIPR red dye solution (10.4 mL of assay buffer and one vial of red FLIPR assay reagent) was added to each well. The plate was further incubated for 30 min to allow the dye to penetrate into the cell membrane (assay plate). During the incubation time, a compound plate (clear 96-well plate) with controls, extracts, microfractions, compounds, and blanks was prepared (200 μL/well). Test solutions of extracts, microfractions, and compounds were prepared in buffer (consisting of 10% HBSS and 2% HEPES in sterilized H2O) and DMSO.
For the extract library screening, 2 μL of a 10 mg/mL DMSO stock solution of the extracts was added to 198 μL of buffer and transferred into the compound plate. The final test concentration for extracts was 20 μg/mL, with a final DMSO concentration in the assay of 0.1%. For extracts tested, active (>35% potentiation) serial dilutions were prepared from the stock solution to obtain final test concentrations of 0.16, 0.31, 0.63, 1.25, 2.50, 5.00, 10.00, and 20.00 μg/mL.
To test the pure compounds, stock solutions of 20 mM in DMSO were prepared. Compounds were assayed at a final concentration range of 0.16 to 20.00 μM (8× dilution series) or alternatively from 0.01 to 20.00 μM (12× dilution series). Aliquots of 200 μL from each dilution were transferred into wells of the compound plate and tested.
A series of controls was included in each assay. GABA at 200 μM was used to represent 100% activation of the receptor, while GABA at 2 μM represented the minimum activation (EC10). The positive control was diazepam at 20 μM in the presence of GABA at 2 μM, and buffer with 0.1% DMSO was used as a blank. GABA solutions (2 and 200 μM) were prepared from a 100 mM stock solution. In order to achieve a final test concentration of 20 μM diazepam in the assay plate, a 100 μM working solution was prepared from a stock solution (1 mg/mL in MeOH).
All test solutions were placed in the appropriate position in the compound plate (200 μL). Right after the final incubation period of the assay plate, the compound and assay plates were placed into a FlexStation 3 (Molecular Devices). The FlexStation parameters used in this study were as previously published.[14] Fluorescence was recorded for 500 s. For the first 25 s, the background fluorescence of the assay plate was measured (background signal). At 25 s, 50 μL of the test solutions (dilutions from compounds, extracts, microfractions, diazepam, and blanks) was transferred from the compound plate into the assay plate. The fluorescence was then recorded until 295 s. At 295 s, 25 μL of the GABA solutions (final concentration of 2 or 200 μM) was transferred into each well of the assay plate, and fluorescence was recorded until 500 s. The change in fluorescence intensity measured between 270 and 330 s was used for the calculation of percentage activation.

GABAA receptors α1β2γ2S = biological target: T1, GABAA receptors α1β2γ2S (Homo sapiens, UniProt P14867+P18507+P47870); assay: Two-microelectrode voltage clamp assay with Xenopus laevis oocytes (α1β2γ2S); assay type: cell-based
T1 construct: expressed in transfected cells; host or cells: Xenopus laevis oocytes, cRNA injection
Description: (§1) Recombinant GABAA receptors (α1β2γ2s and α1β2) were expressed in X. laevis oocytes by cRNA injection, as previously described.[37] Two-microelectrode voltage clamp measurements were performed between days 1 and 5 after injection of cRNA of the respective subunits, using a TURBO TEC 03X amplifier (npi Electronic) at a holding potential of −70 mV and pCLAMP 10 data acquisition software (Molecular Devices). The bath solution contained 90 mM NaCl, 1 mM KCl, 1 mM MgCl2, 1 mM CaCl2, and 5 mM HEPES (pH 7.4), and the electrode filling solution contained 2 M KCl. Test solutions (100 μL) were applied to the oocytes at a speed of 300 μL/sec by means of the ScreeningTool (npi electronic) automated fast perfusion system. GABA EC3–7 was determined through a concentration–response experiment with GABA. A stock solution of compound 8 (100 mM) in DMSO was diluted with a bath solution containing GABA EC3–7 to obtain appropriate working solutions according to a validated protocol. Enhancement of the IGABA was defined as (I(GABA+Comp)/IGABA) – 1, where I(GABA+Comp) is the current response in the presence of a given compound, and IGABA is the control of the GABA-induced chloride current. Emax reflects the maximal IGABA enhancement. Concentration–response curves were generated, and the data were fitted by nonlinear regression analysis using Origin Software (OriginLab Corporation, USA) and are given as the means ± SEM of at least three oocytes from ≥2 batches. Diazepam (Sigma) and flumazenil (Sigma-Aldrich) were used as positive controls at 2 μM.

GABAA receptors α1β2 = biological target: T2, GABAA receptors α1β2 (Homo sapiens, UniProt P14867+P47870); assay: Two-microelectrode voltage clamp assay with Xenopus laevis oocytes (α1β2); assay type: cell-based; conditions: α1β2, in the presence of GABA EC3–7, n = 3
T2 construct: expressed in transfected cells; host or cells: Xenopus laevis oocytes, cRNA injection
T2 sequence (P14867 28-456): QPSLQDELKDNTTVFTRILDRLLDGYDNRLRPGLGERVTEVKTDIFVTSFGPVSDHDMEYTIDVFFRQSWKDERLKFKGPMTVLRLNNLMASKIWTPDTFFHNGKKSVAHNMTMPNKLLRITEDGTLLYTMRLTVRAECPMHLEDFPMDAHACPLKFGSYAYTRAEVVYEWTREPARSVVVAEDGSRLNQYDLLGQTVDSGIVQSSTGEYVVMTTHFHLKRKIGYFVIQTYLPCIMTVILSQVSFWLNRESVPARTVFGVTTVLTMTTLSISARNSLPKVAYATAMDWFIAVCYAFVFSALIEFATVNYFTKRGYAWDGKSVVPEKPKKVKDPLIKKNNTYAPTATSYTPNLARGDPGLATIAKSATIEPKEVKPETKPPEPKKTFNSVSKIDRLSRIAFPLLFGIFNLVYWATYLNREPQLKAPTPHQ
T2 sequence (P47870 25-512 limits assumed): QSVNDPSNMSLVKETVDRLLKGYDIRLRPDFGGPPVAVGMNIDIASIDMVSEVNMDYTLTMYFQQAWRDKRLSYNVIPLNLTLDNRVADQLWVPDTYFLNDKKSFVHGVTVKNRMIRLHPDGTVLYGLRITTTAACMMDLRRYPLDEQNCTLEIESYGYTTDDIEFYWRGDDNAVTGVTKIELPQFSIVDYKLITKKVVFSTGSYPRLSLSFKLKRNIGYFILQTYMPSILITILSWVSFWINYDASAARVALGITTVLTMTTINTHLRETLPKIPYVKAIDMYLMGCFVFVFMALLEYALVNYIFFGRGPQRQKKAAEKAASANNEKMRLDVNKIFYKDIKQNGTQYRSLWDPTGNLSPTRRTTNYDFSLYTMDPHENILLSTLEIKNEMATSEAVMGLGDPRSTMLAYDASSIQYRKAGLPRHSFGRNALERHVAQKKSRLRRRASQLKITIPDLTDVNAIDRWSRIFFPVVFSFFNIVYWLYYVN
Description: as §1, with “Concentration–response curves were generated, and the data were fitted by nonlinear regression analysis using Origin Software (OriginLab Corporation, USA) and are given as the means ± SEM of at least three oocytes from ≥2 batches. Diazepam (Sigma) and flumazenil (Sigma-Aldrich) were used as positive controls at 2 μM.” left out

Sequence of GABAA receptor with the α1β2γ2 subunit composition (P18507 40-475, one chain of several): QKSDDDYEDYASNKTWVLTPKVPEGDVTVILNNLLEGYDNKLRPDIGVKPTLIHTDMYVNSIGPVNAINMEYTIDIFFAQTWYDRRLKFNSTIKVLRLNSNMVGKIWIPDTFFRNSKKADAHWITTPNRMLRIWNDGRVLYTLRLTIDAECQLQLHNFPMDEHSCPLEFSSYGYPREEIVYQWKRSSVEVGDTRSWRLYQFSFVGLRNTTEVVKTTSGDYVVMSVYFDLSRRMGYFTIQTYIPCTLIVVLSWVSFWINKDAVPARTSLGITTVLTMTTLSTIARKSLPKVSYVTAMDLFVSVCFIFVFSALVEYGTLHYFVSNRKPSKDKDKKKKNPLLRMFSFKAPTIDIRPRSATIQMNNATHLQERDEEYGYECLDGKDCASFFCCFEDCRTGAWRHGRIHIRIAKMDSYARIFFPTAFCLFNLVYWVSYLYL
T1 sequence (P18507 40-467 isoform P18507-1 limits assumed, one chain of several): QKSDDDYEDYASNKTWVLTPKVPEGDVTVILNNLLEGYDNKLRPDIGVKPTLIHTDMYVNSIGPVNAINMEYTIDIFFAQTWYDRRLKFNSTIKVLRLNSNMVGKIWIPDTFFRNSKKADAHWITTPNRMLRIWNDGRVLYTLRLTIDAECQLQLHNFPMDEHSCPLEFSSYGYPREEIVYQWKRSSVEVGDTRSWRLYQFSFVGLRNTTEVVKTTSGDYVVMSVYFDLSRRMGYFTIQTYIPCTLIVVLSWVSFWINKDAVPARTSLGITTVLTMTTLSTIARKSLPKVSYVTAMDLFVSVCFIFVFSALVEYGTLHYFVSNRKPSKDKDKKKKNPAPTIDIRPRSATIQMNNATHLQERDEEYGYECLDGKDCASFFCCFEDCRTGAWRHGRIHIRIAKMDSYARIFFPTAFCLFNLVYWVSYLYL

Molecule: CN1C(=O)CN=C(c2ccccc2)c2cc(Cl)ccc21 [diazepam]
- maximal potentiation (Emax) (GABAA receptors): ~200%

Molecule: C=C/C(C)=C/C[C@]1(C)[C@H](C)C[C@H](OC)[C@]23C(=C[C@@H](OC(C)=O)C[C@@H]12)[C@@H](OC(C)=O)O[C@H]3OC(C)=O [Compound 8, Corimbotin A]
- % activation at single concentration ([1]; in the presence of 2 μM GABA): significantly enhanced
- activation by 8 in the presence of flumazenil ([1]; 8 (5 μM) with flumazenil 0.001–10 μM, 2 μM GABA): not abrogated
- combination with allopregnanolone ([1]; 8 (0.5–4.0 μM) with allopregnanolone (0.25 μM), 2 μM GABA): additive effects
- combination with diazepam ([1]; 8 (0.5–8 μM) with diazepam (2 μM), 2 μM GABA): additive effect
- potentiation of the GABA signal by etazolate in combination with 8 ([1]; etazolate (2 μM) with 8 (0.5–8 μM), 2 μM GABA): further increased
- IGABA stimulation by 8 in the presence of flumazenil (GABAA receptors α1β2γ2S; 8 (50 μM), flumazenil (2 μM)): not prevented
- EC50 (GABAA receptors α1β2γ2S; α1β2γ2S, in the presence of GABA EC3–7, n = 3, read-out: EC50, potentiation of GABA-induced chloride currents (IGABA)): 43.6 µM
- Emax (GABAA receptors α1β2γ2S; α1β2γ2S, in the presence of GABA EC3–7, n = 3, read-out: Emax, maximal IGABA enhancement): 809%
- EC50 (GABAA receptors α1β2; read-out: EC50, potentiation of GABA-induced chloride currents (IGABA)): 57.6 µM
- Emax (GABAA receptors α1β2; read-out: Emax, maximal IGABA enhancement): 534%

Molecule: CCO [ethanol, reference compound]
- activation of the GABA signal ([1]; concentrations up to 640 mM, in presence of 2 μM GABA): no activation

Molecule: C=C/C(C)=C/C[C@]1(C)[C@H](C)C[C@H](OC)[C@]23C(=C[C@H](OC(=O)CC)C[C@@H]12)[C@@H](OC(C)=O)O[C@H]3OC(C)=O [Compound 9, (2R)-Propanoyloxy-(6R)-methoxy-18R,19S-diacetoxyzuelanin]
- % activation at single concentration ([1]; in the presence of 2 μM GABA): no discernible activity

Molecule: C=C/C(C)=C/C[C@]1(C)[C@H](C)C[C@H](O)[C@@]2(C=O)C(C=O)=C[C@@H](OC(C)=O)C[C@@H]12 [Compound 1, (5S,8R,9R,10S)-2S-Acetoxy-6S-hydroxyclerod-3,12,14-trien-18,19-dial]
- % activation at single concentration ([1]; in the presence of 2 μM GABA): ~40%

Molecule: pregnenolone sulfate [PREGS, reference compound]
- effect of PREGS on GABA signal with 8, highest concentration ([1]; 8 (10 μM) with PREGS 10 μM, 2 μM GABA): decrease of the GABA signal
- effect of PREGS on GABA signal with 8, lower concentrations ([1]; 8 (10 μM) with PREGS at lower concentrations (<10 μM), 2 μM GABA): no effect
- effect on activation by allopregnanolone ([1]; allopregnanolone 0.5 μM, PREGS 0.001–100 μM): abrogated

Molecule: CCOC(=O)c1ncn2c1CN(C)C(=O)c1cc(F)ccc1-2 [flumazenil, reference compound]
- effect on potentiation of the GABA signal by diazepam ([1]; diazepam 2 μM, flumazenil 0.001–100 μM, concentration-dependent): abolished

Molecule: C=C/C(C)=C/CC1(C)C(C)CC(OC(C)=O)C23C(=CC(OC(C)=O)CC12)C(OC(C)=O)OC3OC(C)=O [Compound 7, (2S,6S,18S,19S)-Tetraacetoxyzuelanin]
- % activation at single concentration ([1]; in the presence of 2 μM GABA): significantly enhanced
- EC50 ([1]; in the presence of 2 μM GABA, CHO cells α1β2γ2, read-out: EC50, positive allosteric modulation of the GABA signal): 4.6 µM

Molecule: C=C/C(C)=C/C[C@]1(C)[C@H](C)C[C@H](OC)[C@@]2(C=O)C(C=O)=C[C@@H](OC(C)=O)C[C@@H]12 [Compound 5, (5S,8R,9R,10S)-2S-Acetoxy-6S-methoxyclerod-3,12,14-trien-18,19-dial]
- % activation at single concentration ([1]; in the presence of 2 μM GABA): ~40%

Molecule: C=C/C(C)=C/C[C@]1(C)[C@H](C)C[C@H](O)[C@]23C(=C[C@H](OC(=O)C(=C)C)C[C@@H]12)[C@@H](OC)O[C@H]3OC(C)=O [Compound 6, (2R)-2-Methylpropenoyloxy-6S-hydroxy-18S-methoxy-19S-acetoxyzuelanin]
- % activation at single concentration ([1]; in the presence of 2 μM GABA): no discernible activity

Molecule: C=C/C(C)=C/C[C@]1(C)[C@H](C)C[C@H](O)[C@]23C(=C[C@@H](OC(C)=O)C[C@@H]12)[C@@H](OC(C)=O)O[C@H]3OC(C)=O [Compound 3, Corymbotin D]
- % activation at single concentration ([1]; in the presence of 2 μM GABA): significantly enhanced

Molecule: C=C/C(C)=C/C[C@]1(C)[C@H](C)C[C@H](O)[C@]23C(=C[C@H](OC(=O)C(=C)C)C[C@@H]12)[C@@H](OC(C)=O)O[C@H]3OC(C)=O [Compound 4, Corymbotin F]
- % activation at single concentration ([1]; in the presence of 2 μM GABA): no discernible activity

Molecule: C=C/C(C)=C/C[C@]1(C)[C@H](C)C[C@H](O)[C@]23C(=C[C@@H](OC(C)=O)C[C@@H]12)[C@@H](OC)O[C@H]3OC(C)=O [Compound 2, Graveospene H]
- % activation at single concentration ([1]; in the presence of 2 μM GABA): no discernible activity
